Counter-ions that a name gives are not always drawn.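 Exposure lasted 48 hours, with cells grown in 96-well plates and compounds tested at five concentrations. The concentration for 50% growth inhibition is given as GI50.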 Active and inactive are the calls of the source. Rule as the data show it: active = GI50 up to about 1.1 µM and inactive = higher.
How the values were obtained:
Assay in all cases: DTP human tumour cell line panel, 48 h
[1] = system: U-251
[2] = system: MDA-MB-231
[3] = system: COLO 205
[4] = system: HL-60
[5] = system: HOP-62
[6] = system: Malme-3M
[7] = system: M14
[8] = system: SK-MEL-2
[9] = system: RXF 393
[10] = system: SK-MEL-5
[11] = system: SNB-19
[12] = system: HOP-92
[13] = system: NCI/ADR-RES
[14] = system: SW-620
[15] = system: PC-3
[16] = system: MOLT-4
[17] = system: 786-0
[18] = system: OVCAR-3
[19] = system: HCT-15
[20] = system: T47D

Structure (SMILES) | GI50 [1] | GI50 [2] | GI50 [3] | GI50 [4] | GI50 [5] | GI50 [6] | GI50 [7] | GI50 [8] | GI50 [9] | GI50 [10] | GI50 [11] | GI50 [12] | GI50 [13] | GI50 [14] | GI50 [15] | GI50 [16] | GI50 [17] | GI50 [18] | GI50 [19] [µM] | GI50 [20]
Cc1c2cccc-2c(OCCO)cc2c3ccccc3n(C)c12 | 1.87 µM (inactive) | 2.75 µM (inactive) | 1.69 µM (inactive) | 2.16 µM (inactive) | 2.56 µM (inactive) | 3.85 µM (inactive) | 3.44 µM (inactive) | 3.15 µM (inactive) | 5.57 µM (inactive) | 2.12 µM (inactive) | 5.09 µM (inactive) | 1.77 µM (inactive) | 30.8 µM (inactive) | 4.08 µM (inactive) | 3.18 µM (inactive) | 3.86 µM (inactive) | 3.37 µM (inactive) | 1.46 µM (inactive) | 6.11 | 3.1 µM (inactive)
CN1C[C@H](C(=O)N[C@]2(C)O[C@@]3(O)[C@@H]4CCCN4C(=O)[C@H](Cc4ccccc4)N3C2=O)C=C2c3cccc4[nH]cc(c34)C[C@H]21 [ERGOTAMINE TARTRATE] | 18.6 µM (inactive) | 19.2 µM (inactive) | 16.5 µM (inactive) | 19.2 µM (inactive) | 23.9 µM (inactive) | 18.3 µM (inactive) | 22.3 µM (inactive) | 17.4 µM (inactive) | 18 µM (inactive) | 14.2 µM (inactive) | 35.1 µM (inactive) | 16.9 µM (inactive) | 26.3 µM (inactive) | 23.4 µM (inactive) | 18.3 µM (inactive) | 23.9 µM (inactive) | 20 µM (inactive) | 18.3 µM (inactive) | 18.9 | 33 µM (inactive)
CN(C)CC1CCC(CN(C)C)C1=O (stereo not given) | 24.3 µM (inactive) | 2.07 µM (inactive) | 0.608 µM (active) | 0.294 µM (active) | > 52.5 µM (inactive) | 1.73 µM (inactive) | 2.91 µM (inactive) | 14.1 µM (inactive) | 4.19 µM (inactive) | 8.26 µM (inactive) | > 100 µM (inactive) | 2.24 µM (inactive) | 23 µM (inactive) | 0.873 µM (active) | 1.98 µM (inactive) | 0.594 µM (active) | 1.93 µM (inactive) | 3.81 µM (inactive) | 1.43 | 1.39 µM (inactive)
COC(NC(N)=O)C(=O)O (stereo not given) | > 100 µM (inactive) | > 100 µM (inactive) | > 100 µM (inactive) | 0.495 µM (active) | > 100 µM (inactive) | > 100 µM (inactive) | > 100 µM (inactive) | > 100 µM (inactive) | > 100 µM (inactive) | > 100 µM (inactive) | > 100 µM (inactive) | > 100 µM (inactive) | > 100 µM (inactive) | > 100 µM (inactive) | > 100 µM (inactive) | > 100 µM (inactive) | > 100 µM (inactive) | > 100 µM (inactive) | > 100 | > 100 µM (inactive)
CC1C/C(=N\N(C)C)C(C#N)(C#N)C1(C#N)C#N (stereo not given) | 18.7 µM (inactive) | 0.583 µM (active) | 1.82 µM (inactive) | 0.857 µM (active) | 18 µM (inactive) | 7.6 µM (inactive) | 12.2 µM (inactive) | 22.2 µM (inactive) | 9.89 µM (inactive) | 18.7 µM (inactive) | 31.7 µM (inactive) | 4.63 µM (inactive) | 25.8 µM (inactive) | 5.05 µM (inactive) | 20.8 µM (inactive) | 2.63 µM (inactive) | 3.7 µM (inactive) | 13.2 µM (inactive) | 4.81 | 10.8 µM (inactive)
Nc1ncnc2c1ccn2CC#CCO | > 100 µM (inactive) | > 100 µM (inactive) | > 100 µM (inactive) | 93.8 µM (inactive) | > 100 µM (inactive) | > 100 µM (inactive) | > 100 µM (inactive) | > 100 µM (inactive) | 97.3 µM (inactive) | > 100 µM (inactive) | > 100 µM (inactive) | > 100 µM (inactive) | > 100 µM (inactive) | > 100 µM (inactive) | > 100 µM (inactive) | > 100 µM (inactive) | > 100 µM (inactive) | > 100 µM (inactive) | > 100 | > 100 µM (inactive)
Cc1ccc(S(=O)(=O)NC2C(=O)c3ccccc3C(=O)C2n2cnc3ccccc32)cc1 (stereo not given) | 26.1 µM (inactive) | 17.9 µM (inactive) | 20 µM (inactive) | 16.6 µM (inactive) | 50.4 µM (inactive) | 0.214 µM (active) | 25.3 µM (inactive) | 14.7 µM (inactive) | 24.9 µM (inactive) | 13.1 µM (inactive) | 27.4 µM (inactive) | 14.4 µM (inactive) | 22.1 µM (inactive) | 25.3 µM (inactive) | 21.2 µM (inactive) | 19.2 µM (inactive) | 39.5 µM (inactive) | 4.3 µM (inactive) | 25.6 | 25.2 µM (inactive)
CC(CC(C#N)(c1ccccc1)c1ccccc1)N1CCCCC1 (stereo not given) | 29.6 µM (inactive) | 25.7 µM (inactive) | 16.2 µM (inactive) | 21 µM (inactive) | 29.2 µM (inactive) | 17.3 µM (inactive) | 19 µM (inactive) | 21.2 µM (inactive) | 28.7 µM (inactive) | 18 µM (inactive) | 80.5 µM (inactive) | 31.9 µM (inactive) | 28.1 µM (inactive) | 19.2 µM (inactive) | 32.6 µM (inactive) | 22.4 µM (inactive) | 27.3 µM (inactive) | 17.6 µM (inactive) | 22.9 | 49.7 µM (inactive)
C/C(=N\NC(=S)N1CCC1)c1ccccn1 | 0.01 µM (active) | 0.0155 µM (active) | 0.01 µM (active) | 0.01 µM (active) | 0.0181 µM (active) | 0.175 µM (active) | 0.01 µM (active) | 1.97 µM (inactive) | 0.163 µM (active) | < 0.0196 µM (active) | 0.261 µM (active) | 0.0443 µM (active) | 0.00332 µM (active) | < 0.0103 µM (active) | 0.0512 µM (active) | 0.01 µM (active) | < 0.0239 µM (active) | 0.01 µM (active) | < 0.0219 | 0.00137 µM (active)
CC(O)(Cc1ccccc1C#N)Cc1ccccc1C#N | > 100 µM (inactive) | > 100 µM (inactive) | 70.8 µM (inactive) | 4 µM (inactive) | > 100 µM (inactive) | > 100 µM (inactive) | > 100 µM (inactive) | > 100 µM (inactive) | > 100 µM (inactive) | 57.3 µM (inactive) | > 100 µM (inactive) | 95.5 µM (inactive) | 27.9 µM (inactive) | > 100 µM (inactive) | 71.3 µM (inactive) | 28.6 µM (inactive) | > 100 µM (inactive) | 65.6 µM (inactive) | 79.3 | 37.6 µM (inactive)
CN/C(=N\CCSCc1nc[nH]c1C)NC#N [CIMETIDINE] | > 100 µM (inactive) | > 100 µM (inactive) | > 100 µM (inactive) | > 100 µM (inactive) | > 100 µM (inactive) | > 100 µM (inactive) | > 100 µM (inactive) | > 100 µM (inactive) | > 100 µM (inactive) | > 100 µM (inactive) | > 100 µM (inactive) | > 100 µM (inactive) | > 100 µM (inactive) | > 100 µM (inactive) | > 100 µM (inactive) | > 100 µM (inactive) | > 100 µM (inactive) | > 100 µM (inactive) | > 100 | > 100 µM (inactive)
CC(=O)O[C@H]1C(=O)[C@@]2(C)[C@H]([C@H](OC(=O)c3ccccc3)[C@]3(O)C[C@H](OC(=O)[C@H](O)[C@@H](NC(=O)c4ccccc4)c4ccccc4C)C(C)=C1C3(C)C)[C@]1(OC(C)=O)CO[C@@H]1C[C@@H]2O | 0.361 µM (active) | 3.18 µM (inactive) | 0.136 µM (active) | 0.0659 µM (active) | 0.326 µM (active) | 1.66 µM (inactive) | 0.55 µM (active) | 2.34 µM (inactive) | 0.525 µM (active) | 0.406 µM (active) | 1.27 µM (inactive) | 2.13 µM (inactive) | > 25 µM (inactive) | 0.351 µM (active) | 0.258 µM (active) | 0.411 µM (active) | 1.64 µM (inactive) | 0.324 µM (active) | 6.38 | > 25 µM (inactive)
N#C/C(=C\c1cc(O)c(O)c(O)c1)C(N)=O | > 87.5 µM (inactive) | > 66.5 µM (inactive) | > 100 µM (inactive) | 37.8 µM (inactive) | > 87.3 µM (inactive) | > 100 µM (inactive) | > 90.2 µM (inactive) | > 100 µM (inactive) | > 100 µM (inactive) | > 69.5 µM (inactive) | > 100 µM (inactive) | 98.2 µM (inactive) | > 93.1 µM (inactive) | > 84.5 µM (inactive) | > 22.2 µM (inactive) | 52.5 µM (inactive) | 54.6 µM (inactive) | > 72.8 µM (inactive) | > 74.5 | > 100 µM (inactive)
